Earlier results, collected in publication PMC6021390, “A promiscuous cytochrome P450 aromatic O-demethylase for lignin bioconversion” (Nature Communications, 2018).

Legend:
LigX = system: LigX; parameters: method as in ref 37 (a number printed in a supplementary file, which may have a reference list of its own: not looked up in the article's list); conditions: 0.2 μM LigXa, 6 μM LigXc, 0.4 μM LigXd, 500 μM NADH, substrate 10-500 μM, FE22 buffer, pH 6.0, 30 °C; cited from earlier work
PODA [1] = system: PODA; parameters: method as in ref 36 (a number printed in a supplementary file, which may have a reference list of its own: not looked up in the article's list); conditions: 100 μg PODA, 500 μM α-KG, 500 μM iron sulfate, 10 mM sodium ascorbate, cryptopine 0-500 μM, pH 7.4, 30 °C; cited from earlier work
PODA [2] = assay: Cited steady-state O-demethylation of cryptopine (0-500 uM) by 100 ug PODA with 500 uM alpha-ketoglutarate, 500 uM iron sulfate and 10 mM sodium ascorbate in 100 mM Tris, pH 7.4, 30 °C, air.; format: biochemical; conditions: cited from earlier work

| SMILES | kcat (LigX) [s⁻¹] | kcat (PODA [1]) [s⁻¹] | Km (PODA [2]) [µM] |
| --- | --- | --- | --- |
| COc1cc(C(=O)O)cc(-c2cc(C(=O)O)cc(OC)c2O)c1O [5,5’-dehydrodivanillate] | 6.1 ± 0.2 |  |  |
| COc1cc2c(cc1OC)C(=O)Cc1ccc3c(c1CN(C)CC2)OCO3 [cryptopine] |  | 0.034 | 27 |
